According to PubChem BioAssay (NCI):
In brackets after ≈: the same amount, converted by molar mass. Several values for one entry are separate records, joined by “and”; a condition that tells them apart may be missing. Equal entries are not always repeated.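 These data come from cells grown in 96-well plates and exposed to compound for 48 hours at five concentrations. At the GI50, growth is halved. At the TGI there is no net growth.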 Where a SMILES comes first, the peptide text is derived from it. [ ]: non-standard residue; d: D form. The star is where a group is joined. hSer = N[CH](CCO)C(=O)O; Boc = CC(C)(C)OC(=O)*; Bn = c1ccc(C*)cc1

Tests used:
Assay in all cases: NCI-60 cell line screen, 48 h
COLO 205 colon = tested on: COLO 205 colon
UO-31 renal = tested on: UO-31 renal
SF-268 CNS = tested on: SF-268 CNS
NCI-H23 lung = tested on: NCI-H23 lung
M14 melanoma = tested on: M14 melanoma
KM12 colon = tested on: KM12 colon
NCI-H522 lung = tested on: NCI-H522 lung
MDA-MB-435 = tested on: MDA-MB-435
SK-MEL-2 melanoma = tested on: SK-MEL-2 melanoma
CAKI-1 renal = tested on: CAKI-1 renal
SW-620 colon = tested on: SW-620 colon
SF-539 CNS = tested on: SF-539 CNS
DU-145 prostate = tested on: DU-145 prostate
SF-295 CNS = tested on: SF-295 CNS
ACHN renal = tested on: ACHN renal
OVCAR-3 ovarian = tested on: OVCAR-3 ovarian
NCI/ADR-RES ovarian = tested on: NCI/ADR-RES ovarian
T-47D breast = tested on: T-47D breast
RXF 393 renal = tested on: RXF 393 renal
U251 CNS = tested on: U251 CNS
MALME-3M melanoma = tested on: MALME-3M melanoma
OVCAR-4 ovarian = tested on: OVCAR-4 ovarian
HCT-116 colon = tested on: HCT-116 colon
SNB-75 CNS = tested on: SNB-75 CNS
UACC-62 melanoma = tested on: UACC-62 melanoma
RPMI-8226 leukemia = tested on: RPMI-8226 leukemia
OVCAR-8 ovarian = tested on: OVCAR-8 ovarian
TK-10 renal = tested on: TK-10 renal
HT29 colon = tested on: HT29 colon
LOX IMVI melanoma = tested on: LOX IMVI melanoma
MDA-MB-231 breast = tested on: MDA-MB-231 breast
HCC-2998 colon = tested on: HCC-2998 colon
A498 renal = tested on: A498 renal
HCT-15 colon = tested on: HCT-15 colon
PC-3 prostate = tested on: PC-3 prostate
OVCAR-5 ovarian = tested on: OVCAR-5 ovarian
A549 NSCLC = tested on: A549 NSCLC
IGROV1 ovarian = tested on: IGROV1 ovarian
SNB-19 CNS = tested on: SNB-19 CNS
HOP-92 NSCLC = tested on: HOP-92 NSCLC
MOLT-4 leukemia = tested on: MOLT-4 leukemia
NCI-H460 lung = tested on: NCI-H460 lung
SK-MEL-28 melanoma = tested on: SK-MEL-28 melanoma
NCI-H226 lung = tested on: NCI-H226 lung
HS 578T breast = tested on: HS 578T breast
SK-OV-3 ovarian = tested on: SK-OV-3 ovarian
786-0 renal = tested on: 786-0 renal
SN12C renal = tested on: SN12C renal
UACC-257 melanoma = tested on: UACC-257 melanoma
SK-MEL-5 melanoma = tested on: SK-MEL-5 melanoma
CCRF-CEM leukemia = tested on: CCRF-CEM leukemia
MCF7 breast = tested on: MCF7 breast
EKVX NSCLC = tested on: EKVX NSCLC
HOP-62 NSCLC = tested on: HOP-62 NSCLC
K-562 leukemia = tested on: K-562 leukemia
HL-60(TB) leukemia = tested on: HL-60(TB) leukemia

SMILES: CCCCCCCCCCCCCCCCNCCC[C@@H](C)[C@H]1CC[C@H]2[C@@H]3[C@H](OCCCN)C[C@@H]4C[C@H](OCCCN)CC[C@]4(C)[C@H]3C[C@H](OCCCN)[C@]12C
- GI50 (COLO 205 colon): 2.52 µM
- TGI (COLO 205 colon): 5.13 µM
- GI50 (UO-31 renal): 2.53 µM
- TGI (UO-31 renal): 5.21 µM
- GI50 (SF-268 CNS): 2.17 µM
- TGI (SF-268 CNS): 4.95 µM
- GI50 (NCI-H23 lung): 2.39 µM
- TGI (NCI-H23 lung): 5.4 µM
- GI50 (M14 melanoma): 2.5 µM
- TGI (M14 melanoma): 5.65 µM
- GI50 (KM12 colon): 2.18 µM
- TGI (KM12 colon): 5.03 µM
- GI50 (NCI-H522 lung): 2.25 µM
- TGI (NCI-H522 lung): 5.36 µM
- GI50 (MDA-MB-435): 2.28 µM
- TGI (MDA-MB-435): 6.57 µM
- GI50 (SK-MEL-2 melanoma): 2.48 µM
- TGI (SK-MEL-2 melanoma): 5.35 µM
- GI50 (CAKI-1 renal): 1.9 µM
- TGI (CAKI-1 renal): 4.58 µM
- GI50 (SW-620 colon): 2.18 µM
- TGI (SW-620 colon): 4.94 µM

SMILES: NC(=O)CC(N)C(=O)NC(Cc1ccccc1)C(=O)NC(Cc1ccccc1)NC(=O)C(Cc1c[nH]c2ccccc12)C(=O)O (centres undefined)
- TGI (SF-539 CNS): > 100 µM
- TGI (DU-145 prostate): > 100 µM
- TGI (COLO 205 colon): > 100 µM
- TGI (SF-295 CNS): > 100 µM
- TGI (ACHN renal): > 100 µM
- TGI (OVCAR-3 ovarian): > 100 µM
- TGI (NCI/ADR-RES ovarian): > 100 µM
- TGI (T-47D breast): > 100 µM
- TGI (RXF 393 renal): > 100 µM
- TGI (U251 CNS): > 100 µM
- TGI (MALME-3M melanoma): > 100 µM
- TGI (OVCAR-4 ovarian): > 100 µM
- TGI (UO-31 renal): > 100 µM
- TGI (HCT-116 colon): > 100 µM
- TGI (SNB-75 CNS): > 100 µM
- TGI (UACC-62 melanoma): > 100 µM
- TGI (SF-268 CNS): > 100 µM
- TGI (RPMI-8226 leukemia): > 100 µM
- TGI (OVCAR-8 ovarian): > 100 µM
- TGI (TK-10 renal): > 100 µM
- TGI (NCI-H23 lung): > 100 µM
- TGI (M14 melanoma): > 100 µM
- TGI (HT29 colon): > 100 µM
- TGI (LOX IMVI melanoma): > 100 µM
- TGI (MDA-MB-231 breast): > 100 µM
- TGI (HCC-2998 colon): > 100 µM
- TGI (A498 renal): > 100 µM
- TGI (HCT-15 colon): > 100 µM
- TGI (PC-3 prostate): > 100 µM
- TGI (OVCAR-5 ovarian): > 100 µM
- TGI (A549 NSCLC): > 100 µM
- TGI (IGROV1 ovarian): > 100 µM
- TGI (SNB-19 CNS): > 100 µM
- TGI (HOP-92 NSCLC): > 100 µM
- TGI (KM12 colon): > 100 µM
- TGI (MOLT-4 leukemia): > 100 µM
- TGI (NCI-H460 lung): > 100 µM
- TGI (SK-MEL-28 melanoma): > 100 µM
- TGI (NCI-H226 lung): > 100 µM
- TGI (NCI-H522 lung): > 100 µM
- TGI (HS 578T breast): > 100 µM
- TGI (SK-OV-3 ovarian): > 100 µM
- TGI (786-0 renal): > 100 µM
- TGI (SN12C renal): > 100 µM
- TGI (UACC-257 melanoma): > 100 µM
- TGI (SK-MEL-5 melanoma): > 100 µM
- TGI (MDA-MB-435): > 100 µM
- TGI (CCRF-CEM leukemia): > 100 µM
- TGI (SK-MEL-2 melanoma): > 100 µM
- TGI (MCF7 breast): > 100 µM
- TGI (EKVX NSCLC): > 100 µM
- TGI (HOP-62 NSCLC): > 100 µM
- TGI (CAKI-1 renal): > 100 µM
- TGI (K-562 leukemia): > 100 µM
- TGI (SW-620 colon): > 100 µM

SMILES: CC(C)CC(NC(=O)OC(C)(C)C)C(=O)NC(CCOCc1ccccc1)C(N)=O (stereo not drawn) (Boc-Leu-[hSer](Bn)-NH2; configuration not given here)
- GI50 (HOP-92 NSCLC): 21.4 µg/mL (≈ 50.9 µM)
- TGI (HOP-92 NSCLC): 57.4 µg/mL
- GI50 (SK-OV-3 ovarian): 46.1 µg/mL (≈ 109 µM)

SMILES: CC(C)C(=O)/C=C/S/C=C/C(=O)C(C)C
- TGI (SF-539 CNS): 60.2 µM
- TGI (DU-145 prostate): 29.4 µM
- TGI (COLO 205 colon): 8.16 µM
- TGI (SF-295 CNS): > 100 µM
- TGI (ACHN renal): 5.27 µM
- TGI (OVCAR-3 ovarian): 14.9 µM
- TGI (NCI/ADR-RES ovarian): 9.63 µM
- TGI (T-47D breast): 65.7 µM
- TGI (RXF 393 renal): 19.4 µM
- TGI (U251 CNS): 70.6 µM
- TGI (MALME-3M melanoma): 25.6 µM
- TGI (OVCAR-4 ovarian): > 100 µM
- TGI (UO-31 renal): 62.7 µM
- TGI (SNB-75 CNS): > 100 µM
- TGI (UACC-62 melanoma): 27.9 µM
- TGI (SF-268 CNS): > 100 µM
- TGI (OVCAR-8 ovarian): 6.48 µM
- TGI (TK-10 renal): > 100 µM
- TGI (NCI-H23 lung): 7.57 µM
- TGI (M14 melanoma): 20.2 µM
- TGI (HT29 colon): > 100 µM
- TGI (LOX IMVI melanoma): 11.1 µM
- TGI (MDA-MB-231 breast): 15.9 µM
- TGI (HCT-15 colon): 12.2 µM
- TGI (OVCAR-5 ovarian): 22.1 µM
- TGI (A549 NSCLC): > 100 µM
- TGI (IGROV1 ovarian): 45.8 µM
- TGI (SNB-19 CNS): > 100 µM
- TGI (KM12 colon): 92.1 µM
- TGI (NCI-H460 lung): > 100 µM
- TGI (SK-MEL-28 melanoma): 21.1 µM
- TGI (NCI-H226 lung): 29.2 µM
- TGI (NCI-H522 lung): 3.62 µM
- TGI (HS 578T breast): 95.7 µM
- TGI (SK-OV-3 ovarian): > 100 µM
- TGI (786-0 renal): 6.52 µM
- TGI (SN12C renal): 29.6 µM
- TGI (UACC-257 melanoma): 6.5 µM
- TGI (SK-MEL-5 melanoma): 21.7 µM
- TGI (MDA-MB-435): 30.1 µM
- TGI (SK-MEL-2 melanoma): > 100 µM
- TGI (MCF7 breast): > 100 µM
- TGI (EKVX NSCLC): 90.9 µM
- TGI (HOP-62 NSCLC): 86.9 µM
- TGI (CAKI-1 renal): 10.7 µM
- TGI (SW-620 colon): 17 µM

SMILES: Oc1c(Cl)c(Cl)c(Cl)c(Cl)c1Cl (tested in a mixture with another compound)
- TGI (HL-60(TB) leukemia): 39 µM and 10 µM
- TGI (NCI-H226 lung): 41.7 µM
- TGI (CCRF-CEM leukemia): 62.3 µM
